From publication PMC4357015, “Structure, Function and Inhibition of the Phosphoethanolamine Methyltransferases of the Human Malaria Parasites Plasmodium vivax and Plasmodium knowlesi” (Scientific Reports, 2015)

What was measured:
[1] = test system: pem1Δpem2Δ-pYES2.1-PvPMT; assay: yeast growth inhibition, pem1Δpem2Δ strain expressing PvPMT; assay type: cell-based; conditions: 100 μM AQ
Method: Figure 5 PMT-dependent inhibition of growth and PC biosynthesis by amodiaquine and NSC158011. (A–C): Growth curves of pem1Δpem2Δ-pYES2.1-PkPMT (A), pem1Δpem2Δ-pYES2.1-PvPMT (B), or Wild Type-pYES2.1- (C) strains grown in minimal medium containing 4% galactose and 1 mM ethanolamine in the presence or absence of 100 μM choline and 100 μM amodiaquine (AQ) as indicated. Growth curves of pem1Δpem2Δ-pYES2.1-PkPMT (D), pem1Δpem2Δ-pYES2.1-PvPMT (E), or Wild Type-pYES2.1- (F) strains maintained in minimal medium containing 4% galactose and 1 mM ethanolamine in the presence or absence of 100 μM choline and 10 μM NSC158011.
pem1Δpem2Δ-pYES2.1, pem1Δpem2Δ-pYES2.1-PkPMT, pem1Δpem2Δ-pYES2.1-PvPMT, and pem1Δpem2Δ-pYES2.1-PfPMT yeast strains were pre-grown overnight in uracil dropout synthetic galactose (4%) (SG-URA) medium supplemented with 2 mM ethanolamine (Etn). Cells were diluted to an A600 = 0.001 in fresh SG-URA medium supplemented with 2 mM Etn in the presence or absence of 100 μM Choline (Cho). Cells were grown at 30°C and the growth was monitored by measuring the A600. […]

[2] = test system: PC biosynthesis in pem1Δpem2Δ-pYES2.1-PvPMT; assay: phospholipid analysis of yeast pem1Δpem2Δ strain expressing PvPMT; assay type: cell-based; conditions: 200 μM AQ
Method: Figure 6 PMT-dependent inhibition of PC biosynthesis by AQ and NSC158011. To assess the effect of AQ on phospholipid metabolism, […] and wild-type strains were grown in minimal medium containing 4% galactose and 2 mM ethanolamine in the absence or presence of 200 μM AQ, lipids were extracted and separated by TLC (A). Each lipid class was scrapped off the TLC plate and quantified by measuring phosphorus (B). The effect of NSC158011 on phospholipid biosynthesis was determined by [33P] orthophosphoric acid labeling as described in Material and Methods. Lipids were separated by TLC (C) and quantified by liquid scintillation spectrometry (D). For all assays, data were used to calculate the PC/PI + PA ratio. The data are represented as the mean ± S.D. of at least two independent experiments.
BY4741-pYes2.1 (wild-type) strains and the pem1Δpem2Δ strains harboring pYES2.1 vector, pYES2.1-PkPMT, pYES2.1-PvPMT or pYES2.1-PfPMT were pre-grown to mid-log phase at 30°C in SG-URA medium supplemented with Etn (2 mM) and Cho (2 mM). […] Each lipid class was excised from the plate and quantified by measuring phosphorus. […] After the growth, lipids were extracted and analyzed as described above. […] The resolved radioactive lipids were visualized by Phosphorimager (GE Typhoon) and quantified by liquid scintillation spectrometry as described.

Q: `CCN(CC)Cc1cc(Nc2ccnc3cc(Cl)ccc23)ccc1O` [AQ, amodiaquine] was tested. Which “growth of pem1Δpem2Δ+PvPMT strain in media supplemented with choline” value ([1]; 100 μM choline) did it give?
A: no effect

Q: And the “growth of pem1Δpem2Δ+PvPMT strain” value ([1]; ethanolamine medium without choline)?
A: significantly inhibited

Q: And the “effect on the synthesis of PE” value [2]?
A: little to no effect
